Columns and labels:
[1] = tested on: adult kidney cells; assay: Chromatin immunoprecipitation (ChIP) of Six2 and Wt1 promoters; format: cell-based, human; settings: VPA 4 mM
Protocol: Chromatin Immunoprecipitation Assay (ChIP): 10×10^6 cells adult kidney cells were grown. Untreated cells (control) or cells treated with VPA (4 mM) were cross-linked with 1% formaldehayde for 10 min at RT in culture medium. The cells were washed and harvested in cold phosphate-buffered saline (PBS) containing protease inhibitors (Complete mini, Roche Applied Science) and Pepstatin (Sigma). The cells were then washed with Buffer B (20 mM Hepes pH 7.6, 0.25% Triton-x, 10 mM EDTA, 0.5 mM EGTA) and Buffer C (50 mM Hepes pH 7.6, 150 mM NaCl, 1 mM EDTA, 0.5 mM EGTA) were resuspended in 300 μl of SDS lysis buffer [1% SDS, 10 mM EDTA and 50 mM Tris-HCl (pH 8.1)], and incubated on ice for 10 minutes. Lysates were sonicated with 8×10 second bursts and debris were removed by centrifugation for 10 minutes at 1000 g, at 4° C. Supernatants were diluted 10-fold in ChIP dilution buffer [0.01% SDS, 1.1% Triton X-100, 1.2 mM EDTA, 16.7 mM Tris-HCl (pH 8.1) and 167 mM NaCl] and pre-cleared by incubating with 40 μl of protein A+salmon sperm beads (Upstate Biotechnology) for 30 minutes at 4° C. Beads were pelleted for 1 minute at 1000 g at 4° C. A total of 10 μl of the supernatant was saved as input, and the rest was divided into equal aliquots and incubated by rocking with either control Ab (IgG) or with of specific antibodies; Trimethyl-Histon 3K27 antibody (Upstate Biotechnology), anti acetylatedhistone H4 (Upstate Biotechnology) over night at 4° C. A total of 60 μl of protein A+salmon sperm beads was added, and the samples were rocked for 2 hours at 4° C. The complexes on the beads were washed for 5 minutes at 4° C. with the following buffers: low salt [0.1% SDS, 1% Triton X-100, 2 mM EDTA, 20 mM Tris-HCl (pH 8.1) and 150 mM NaCl], high salt [0.1% SDS, 1% Triton X-100, 2 mM EDTA, 20 mM Tris-HCl (pH 8.1), 500 mM NaCl], LiCl wash [0.25 M LiCl, 1% Nonidet P-40, 1% deoxycholate, 1 mM EDTA and 10 mM Tris-HCl (pH 8.1)], and twice with TE [10 mM Tris-HCl and 1 mM EDTA (pH 8.0)]. Immune complexes were eluted twice with 200 μl of elution buffer [1% SDS and 0.1 M NaHCO3]for 15 minutes at room temperature. The samples were de-crosslinked by adding 16 μl of 5 M NaCl, 8 μl of 0.5 M EDTA (pH 6.5) and 16 μl of 1M Tris-HCl (pH 8.1) and incubated O.N at 65° C. Proteinase K (10 mg/ml) and the samples were incubated for additional 2 hours at 55° C. Immunoprecipitated DNA was recovered by phenol/chloroform extraction and ethanol precipitation and was analyzed by quantitative RT PCR.

[2] = tested on: human fetal kidney cells; assay: Western blot for Six2 and Wt1 after VPA; format: cell-based; settings: 24 h after VPA exposure
Protocol: (§1) Cell Treatment: Cells were treated for 24 hours with growth medium supplemented with 1, 2, or 4 mM VPA (Sigma) or with H2O for control sample. Otherwise, cells were treated for 24 hours with growth medium supplemented with the combination of 75 μM TSA (Sigma) and 250 μM 5-AZA (Sigma) or with 100% Ethanol and Acetic Acid (Acetic Acid: H2O 1:1) for control sample. […] 24 hours prior to harvesting VPA at a concentration of 4 mM was added to the cell culture.
(§2) Western Blot: AK, FK (treated and untreated) and Melanoma cells were harvested with Tripsin/EDTA. Cell extracts were prepared with lysis buffer (50 mM Tris-HCl, 150 mM NaCl, 0.1 mM EDTA, 0.5 mM DTT, 1.5 mM MgCl, 0.5% Triton-X) and their concentrations were detected by BCA protein assay kit (Thermo scientific). 100 μg of total proteins were heated at 95° C. for 5 min with laemmli sample buffer (Bio-rad) and then were loaded on SDS-10% polyacrylamide gel. After electrophoresis, proteins were transferred to nitrocellulose membrane that was blocked with 5% nonfat dry milk overnight at 4° C. The membrane was reacted with the required antibodies, namely Six2 (Affinity Bioreagents), WT1 (Santa Cruz), goat anti-rabbit IgG (Jackson). The membrane was reacted with ECL substrate (Thermo scientific) and was exposed to medical x-ray film (Fuji).

[3] = tested on: human adult kidney cells; assay: Western blot for Six2 and Wt1 after VPA; format: cell-based; settings: 24 h after VPA exposure
Protocol: as §1, §2

[4] = tested on: HAK cells; assay: Culture passage with transient or constant VPA (qRT-PCR, morphology); format: cell-based, human; settings: for cell morphology: culture passage
Protocol: Quantitative Reverse Transcription-PCR: Total RNA from kidney tissue cultured cells was isolated using the TRIZOL reagent (Invitrogen) according to the manufacturer's protocols. cDNA synthesis was carried out using Verso kit (Thermo scientific) with Random primers. Quantitative RT PCR was performed using an ABI7900HT sequence detection system (Perkin-Elmer/Applied Biosystems) in the presence of SYBR green (SYBR green PCR kit; Qiagen). Each analysis reaction was performed in duplicates or triplicates. GapDH was used as an endogenous control throughout all experimental analyses. Analysis was performed using the −ΔΔCt method, which determines fold changes in gene expression relative to a comparator sample. Maintaining re-induction of Six2/Osr1 in cultured human kidney cells is potentially important if such cells were to be propagated in vitro for the purpose of cell therapy. The present inventors therefore determined whether Six2 and Osr1 are maintained upon tissue culture passage of adult cells. Two treatment protocols were employed; the first, 24-hour exposure to 4 mM VPA and the second constant exposure to VPA.

[5] = tested on: Oct4 OE HAK cells; assay: qRT-PCR of Oct4 over-expressing HAK cells with or without VPA; format: cell-based, human
[6] = tested on: adult kidney cells; assay: Methylation immunoprecipitation (MeDIP) of Six2 and Wt1 promoters; format: cell-based, human
Protocol: […] (MeDIP): 10 μg of sonicated genomic DNA (100-400 bp in length) was denatured, incubated 0/N at 4° C. with […] of anti-methyl cytosine antibody (Diagenode, Belgium), and subsequently with 60 μl of protein A fast flow beads (Upstate Biotechnologies) for 2 hours at 4° C. The beads were washed and incubated with digestion buffer (50 mM Tris-HCl pH 8.0, 10 mM EDTA, 0.5% SDS) and proteinase K for 3 hours and the DNA extracted by phenol-chloroform and EtOH precipitation. The samples were tested by quantitative RT PCR with the indicated primers at table 2. The sonicated DNA served as input.

[7] = P0 cells, transient 24-hour exposure to 4 mM VPA
[8] = later passages, transient 24-hour exposure to 4 mM VPA

SMILES: CCCC(CCC)C(=O)O [VPA, valproic acid]
- H3K4me at Six2 promoter regions [1]: significant increases
- H3K4me elevation in the Wt1 promoter region [1]: not
- H3K27me in the Wt1 promoter region [1]: modest elevation
- H3K27me levels at Six2 promoter regions [1]: no change
- acetylated histones H4 at Six2 promoter regions (-92, -412, -541, -731, -955, -1157) [1]: significantly increased
- Six2 protein levels ([2]; 4 mM): increment
- Wt1 protein levels ([2]; 2 and 4 mM): no changes
- Six2 protein levels ([3]; 4 mM): increment
- Wt1 protein levels ([3]; 2 and 4 mM): no changes
- Osr1 gene levels [4, 7]: re-induced
- Six2 gene levels [4, 7]: re-induced
- Osr1 gene levels upon culture passage ([4]; constant VPA exposure, P1-P3): significant Six2 and Osr1 re-induction
- Six2 gene levels upon culture passage ([4]; constant VPA exposure, P1-P3): significant Six2 and Osr1 re-induction
- Six2 gene levels ([4]; constant VPA exposure, P3 cells): even further up-regulated
- cell morphology ([4]; constant VPA exposure): epithelial-like cell morphology
- Osr1 gene levels [4, 8]: remained similar to controls
- Six2 gene levels [4, 8]: remained similar to controls
- cell morphology ([4]; transient 24-hour VPA exposure): fibroblastic morphology
- Six2 expression, VPA exposure combined with Oct4 OE [5]: higher Six2 expression pattern compared to each of the single manipulations
- DNA methylation on Wt1 promoter ([6]; VPA treatment): minimally effected
- DNA methylation at the Six2 promoter ([6]; with or without VPA): DNA hypomethylation at the Six2 promoter loci regardless of VPA treatment
